Source: patent US12479805B2, “Indazole hydrazide compound and application thereof” (Beijing Baheal Chengchuang Pharmaceutical Research and …, priority 2021, dated 2025)
Read-outs that look alike come from different tables or passages of the source.

Assays:
[1] = test system: microvascular endothelial cell HMEC-1; test: Activity assay (chemiluminescence), HMEC-1; assay type: cell-based; settings: HMEC-1 cells, FIG. 21-22
[2] = test system: ovarian cancer cell OVCAR-4; test: Anti-tumor activity assay (chemiluminescence), OVCAR-4; assay type: cell-based; settings: OVCAR-4 cells, FIG. 21-22
Protocol: (§1) The frozen tumor cells (prostate cancer, ovarian cancer, etc.) were taken out from liquid nitrogen, and quickly dissolved at 37° C. The cells were added to 5 ml of the corresponding medium containing FBS and centrifuged at 300 g for 5 minutes. The precipitate was collected, resuspended with the corresponding medium and then mixed well. After that, cells were added to a 24-well cell culture dish, supplemented with the medium to a total volume of 2 mL per well at 37° C. and cultured. After the confluence reached about 90%, subculturing or counting and plating was performed.
(§2) After the cultured tumor cells were sufficient to be passaged, they were digested with trypsin and a single cell suspension was prepared. After counting, cells were adjusted to a concentration of 1.2×10^4 cells/ml with the corresponding medium. 90 μl of the mixed solution was added to a 96-well plate and incubated at 37° C. for 30 minutes. Then the mixture was added with the corresponding medium and incubated in a cell incubator at 37° C. overnight. The morphology and confluence of tumor cells were observed. […]
(§3) Chemiluminescence method was used to measure ATP level of cells to evaluate cell viability. […] After mixing well, the lysis mixture was transferred to a microplate reader. After 5-10 minutes, the chemiluminescence data were gathered in the microplate reader. […]

[3] = test system: drug-resistant 22RV1 cells; test: Combination with enzalutamide on 22RV1 cells (chemiluminescence); assay type: cell-based; settings: in combination with enzalutamide, enzalutamide-resistant 22RV1 cells, FIG. 23
Protocol: (§4) Chemiluminescence method was used to measure ATP level of cells to evaluate cell viability. The specific operation was performed in accordance with the instructions. After the incubation, 50 μL of CTG solution was added. After mixing well, the lysis mixture was transferred to a microplate reader. After 5-10 minutes, the chemiluminescence data were gathered in the microplate reader. Excel software was used to analyze and process the data, and GraphPad Prism 7 software was used to calculate IC50 according to the fitted dose-effect curve generated by the chemiluminescence data.

tumor cells LNCaP = test: Anti-tumor activity assay (chemiluminescence CTG cell viability), LNCaP; assay type: cell-based; settings: for IC50: Homo sapiens, 72 h, CTG chemiluminescence
Protocol: as §1
(§5) After the cultured tumor cells were sufficient to be passaged, they were digested with trypsin and a single cell suspension was prepared. After counting, cells were adjusted to a concentration of 1.2×10^4 cells/ml with the corresponding medium. 90 μl of the mixed solution was added to a 96-well plate and incubated at 37° C. for 30 minutes. Then the mixture was added with the corresponding medium and incubated in a cell incubator at 37° C. overnight. The morphology and confluence of tumor cells were observed.
(§6) After the tumor cells were cultured overnight, serial dilutions of the compounds were prepared and added to the culture system.
(§7) The stock solution of the indazole hydrazide compound (100 mM) dissolved in DMSO was fully dissolved at room temperature. If there was any insoluble matter, heating and ultrasonication were carried out for 5 minutes to observe until dissolution.
(§8) 20 μl DMSO was added to wells 2-9 of a 96-well V-shaped compound dilution plate, and 30 μl stock solution was added to well 1. The compound dilution plate was placed on a shaking mixer. 10 μl liquid was transferred from well 1 to well 2, mixed well by pipetting and shaking, then 10 μl of liquid was transferred from well 2 to well 3, mixed well by pipetting and shaking, and so on . . . and finally 10 μl of liquid was transferred from well 8 to well 9, mixed well by pipetting and shaking, and 1000× gradient dilution stock solution was prepared. [Note: As DMSO easily absorbs moisture in the air, after the operation, the compound dilution plate was immediately sealed with parafilm, stored at 4° C., and discarded after 1 week. When using it again, the parafilm was removed after the temperature reached room temperature to avoid inaccurate concentration caused by moisture absorption.]
(§9) In the ultra-clean workbench, a 96-well sterile cell culture plate was used. 198 μl of medium was added to wells 1-9, and 2 μl of the stock solution in wells 1-9 of the 1000× stock solution was transferred to the corresponding wells 1-9 of the 96-well sterile cell culture plate, mixed well by pipetting and shaking, and […] was prepared. This stock solution needed to be prepared and used on the same day.
(§10) 10 μl of the 10× stock solution prepared on the day was added to the cell culture medium.
(§11) It was incubated for 72 h at 37° C. under 5% carbon dioxide conditions.
as §4
(§12) In this test, Z factor was used as a quality control indicator. Z′ factor was defined by 4 parameters: the mean (μ) and standard deviation (σ) of the positive control (positive, p) and the negative control (negative, n).
(§13) The negative control group was the untreated group with the addition of solvent (DMSO); the positive control was 2.5 μM BEZ235 or 1 μM Staurosporine. […]

tumor cells 22RV1 = test: Anti-tumor activity assay (chemiluminescence CTG cell viability), 22RV1; assay type: cell-based; settings: 22RV1 cells; for Hillslope 22RV1: fitted dose-effect curve; for IC50: Homo sapiens, 72 h, CTG chemiluminescence
Protocol: as §1, §5, §6, §7, §8, §9, §10, §11, §4, §12, §13

[4] = test system: vascular endothelial cell HUVEC-T11; test: Activity assay (chemiluminescence), HUVEC-T11; assay type: cell-based; settings: HUVEC-T11 cells, FIG. 21-22
integrin protein αvβ3 = integrin protein αvβ3 (Homo sapiens, UniProt P05106+P06756); test: Affinity test by surface plasmon resonance (Biacore 8K); assay type: binding
Sequence of integrin protein αvβ3 (P06756 31-1048): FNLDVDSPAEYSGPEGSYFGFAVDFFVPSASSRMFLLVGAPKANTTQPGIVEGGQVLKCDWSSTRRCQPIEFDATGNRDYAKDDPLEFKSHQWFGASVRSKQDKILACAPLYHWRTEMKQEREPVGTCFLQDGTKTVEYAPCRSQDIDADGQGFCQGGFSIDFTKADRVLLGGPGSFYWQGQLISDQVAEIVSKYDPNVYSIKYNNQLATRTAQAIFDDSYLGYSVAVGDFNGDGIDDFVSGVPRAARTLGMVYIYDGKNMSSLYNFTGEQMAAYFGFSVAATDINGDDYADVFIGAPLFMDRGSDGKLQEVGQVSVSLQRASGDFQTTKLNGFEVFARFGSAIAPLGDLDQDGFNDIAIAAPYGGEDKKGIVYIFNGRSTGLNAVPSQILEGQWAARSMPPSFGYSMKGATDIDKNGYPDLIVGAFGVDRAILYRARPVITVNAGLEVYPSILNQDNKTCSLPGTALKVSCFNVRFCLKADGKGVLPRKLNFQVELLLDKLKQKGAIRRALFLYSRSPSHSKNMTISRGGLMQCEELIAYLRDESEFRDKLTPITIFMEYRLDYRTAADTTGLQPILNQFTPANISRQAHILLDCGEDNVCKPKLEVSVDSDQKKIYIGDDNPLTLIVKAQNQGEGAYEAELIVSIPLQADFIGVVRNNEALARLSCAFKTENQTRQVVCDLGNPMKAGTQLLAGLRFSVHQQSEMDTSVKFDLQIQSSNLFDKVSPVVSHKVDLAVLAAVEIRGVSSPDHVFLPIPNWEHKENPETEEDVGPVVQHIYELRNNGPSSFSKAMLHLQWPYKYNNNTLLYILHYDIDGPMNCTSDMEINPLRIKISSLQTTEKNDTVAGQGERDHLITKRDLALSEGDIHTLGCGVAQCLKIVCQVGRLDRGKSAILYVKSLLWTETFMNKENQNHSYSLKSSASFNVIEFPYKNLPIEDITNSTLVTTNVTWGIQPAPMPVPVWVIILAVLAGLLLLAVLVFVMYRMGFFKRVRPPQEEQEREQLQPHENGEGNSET
Sequence of integrin protein αvβ3 (P05106 27-788): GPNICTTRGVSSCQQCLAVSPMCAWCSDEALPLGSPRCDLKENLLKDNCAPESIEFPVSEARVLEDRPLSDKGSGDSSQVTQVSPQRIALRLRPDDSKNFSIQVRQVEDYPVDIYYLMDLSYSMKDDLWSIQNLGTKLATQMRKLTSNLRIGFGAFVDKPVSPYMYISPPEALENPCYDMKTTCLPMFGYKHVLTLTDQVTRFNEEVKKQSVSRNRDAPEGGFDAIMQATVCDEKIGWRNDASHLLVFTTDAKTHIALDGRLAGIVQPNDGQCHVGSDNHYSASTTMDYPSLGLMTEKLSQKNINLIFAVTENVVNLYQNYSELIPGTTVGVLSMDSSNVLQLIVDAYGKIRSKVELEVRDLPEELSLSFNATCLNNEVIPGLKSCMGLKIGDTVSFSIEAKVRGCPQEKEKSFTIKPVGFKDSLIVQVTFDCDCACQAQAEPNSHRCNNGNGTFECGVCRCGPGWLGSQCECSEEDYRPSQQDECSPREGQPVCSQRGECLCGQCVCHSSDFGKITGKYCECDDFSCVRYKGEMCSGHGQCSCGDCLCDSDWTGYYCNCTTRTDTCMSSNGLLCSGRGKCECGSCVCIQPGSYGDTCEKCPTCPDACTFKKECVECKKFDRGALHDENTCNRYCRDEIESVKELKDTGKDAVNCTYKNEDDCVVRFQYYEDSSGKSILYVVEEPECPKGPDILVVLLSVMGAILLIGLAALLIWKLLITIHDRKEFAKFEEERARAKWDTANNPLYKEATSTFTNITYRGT
Protocol: The surface plasmon resonance instrument Biacore 8K was used to analyze the interaction between the compound and the integrin protein αvβ3. First, the system temperature was set to 25° C., and the flow rate to […]. PBS buffer was passed until the baseline was stable.
Without activating the surface of the chip, the integrin αvβ3 protein sample was dissolved in sodium acetate buffer with different pH values (pH=4, 4.5, 5) to make it carry different amounts of charge. Then the integrin protein sample flowed through the surface of the chip at a flow rate of 10 μL/min. Through the binding curve of integrin and the chip, a appropriate pH condition (pH=4.0) was determined. Finally, 50 mM NaOH eluate was injected to wash away the protein adsorbed on the chip surface.
CM5 chip was selected. The protein coupling was operated according to the amino coupling method, and the coupling steps are as follows: • (1) Activation: NHS/EDC mixture (0.1 M NHS and 0.4 M EDC, mixed at a volume ratio of 1:1 before use, and used immediately) was injected for 800 s at a flow rate of 10 μL/min, to activate the carboxyl of glucan on the surface of the chip; • (2) Immobilization: 20 ng/μL integrin αvβ3 protein solution was prepared with the buffer with the pH value determined in the pretreatment, and was injected for 800 s at a flow rate of 10 μL/min; • (3) Blocking: 1 M ethanolamine hydrochloride was used to block for 800 s to complete the immobilization process of the protein. 4.1.4 Binding Experiment
The compound to be tested was dissolved in PBS-P buffer (1.0×PBS, pH7.4, 0.15M Nacl, 0.05% tween-20), to prepare to a concentration of 50 μM. It was injected at a flow rate of 10 μL/min for a preliminary binding analysis.
The compound that was positive in the preliminary analysis was then prepared with buffers to a concentration gradient of 50 μM, 25 μM, 12.5 μM, 6.3 μM, 3.1 μM, 1.6 μM, 0.78 μM, 0.39 μM, 0.097 μM, 0.024 μM, and 0.0061 μM, and SB273005 was used as a positive control for a kinetic constant analysis.

melanoma cell WM115 = test: Anti-tumor activity assay (chemiluminescence), WM115; assay type: cell-based; settings: WM115 cells, FIG. 21-22
Protocol: as §1, §2, §3

[5] = test system: prostate cancer PC-3 cells; test: Anti-tumor activity assay (chemiluminescence), PC-3; assay type: cell-based; settings: FIG. 21-22
Protocol: as §1, §2, §3

[6] = test system: prostate cancer DU145 cells; test: Anti-tumor activity assay (chemiluminescence), DU145; assay type: cell-based; settings: FIG. 21-22
Protocol: as §1, §2, §3

HUVEC cells = test: 2D angiogenesis experiment (HUVEC on Matrigel); assay type: cell-based, human; settings: VEGF, 4 h
Protocol: 3.1 Evaluation of Anti-Angiogenesis of Compounds by 2D Angiogenesis Experiment:
(1) In a 96-well plate, 50 ul of 100% Matrigel was added to each well and air bubbles should be avoided. The plate was then placed in a 37° C. incubator for 45 minutes.
(2) When the confluence of HUVEC cells in good growth state reached about 80%, the cells were digested, and resuspended in HUVEC complete medium. 40 uL of resuspension was added to each well in triplicate at a concentration of 4×10000 cells/well.
(3) 5 uL of compounds with three concentrations of high, medium and low was added to the test compound group. In the VEGF group, 5 uL of culture medium containing 200 ng/ml VEGF was added. In the solvent group, 10 uL culture medium was supplemented.
(4) Cells were incubated in a 37° C. 5% CO2 incubator for 4 h, and photos of each well were taken.

[7] = test system: tumor cells and HUVEC cells spheroids; test: 3D co-culture of tumor cells and HUVEC cells anti-angiogenesis experiment; assay type: cell-based, human; settings: 0.3 μM, 1.0 μM, day 2 and day 5, VEGF 20 ng/mL
Protocol: 3.2 Experiments of Evaluating Anti-Angiogenesis of Compounds by 3D Co-Culture of Tumor Cells and HUVEC Cells: • (1) 25,000 tumor cells and 25,000 HUVEC cells were mixed and plated in a low-adsorption 24-well plate. Cells were shaken horizontally in a 37° C. incubator and placed for 24 h to form a suspension of Spheroids. • (2) 40 uL of 10% Matrigel was added to each well, and placed at 37° C. for 45 min to crosslink and harden the gel. 40 uL of suspension with Spheroids was added to wells. • (3) After 24 h, 10 uL of compounds with three concentrations of high, medium and low was added to the test compound group. In the VEGF group, 10 uL of culture medium containing 200 ng/ml VEGF was added. In the solvent group, 20 uL culture medium was supplemented. • (4) Cells were incubated in a 37° C. 5% CO2 incubator for 0, 2, 5, and 7 days, and photos of each well were taken.
Bright-field photos were taken under the microscope, scale bar=100 μm. The imageview software measurement tool was used to count the length of the blood vessels generated by one organoid. The average of the total length of blood vessels was calculated. It was compared with the 20 ng/ml VEGF group. *p<0.05, **p<0.01. Error bars indicate ±SEM.
In the 3D […] experiment, the following conclusions can be drawn based on the bright field photos and the total length of blood vessels on 0, 2, 5, and 7 days after addition of drugs: […]

[8] = SPR, immobilized integrin αvβ3, 25° C., read-out: KD affinity

| Compound | IC50 (tumor cells LNCaP) [µM] | Hillslope 22RV1 (tumor cells 22RV1) | IC50 (tumor cells 22RV1) [µM] | inhibition of microtubule formation (HUVEC cells) | Kd (integrin protein αvβ3; [8]) [nM] | other results |
| --- | --- | --- | --- | --- | --- | --- |
| O=C(N/N=C/c1cccc(O)c1)c1n[nH]c2c1CCCC2 [Formula (5)] |  |  |  |  |  | inhibitory effect (activity curve) [1]: inhibitory effect; inhibitory effect (activity curve) [2]: inhibitory effect; effect of combination with enzalutamide [3]: synergistic effect; anti-tumor activity (activity curve) (tumor cells LNCaP; FIG. 21-22): obvious anti-tumor activity; anti-tumor activity (activity curve) (tumor cells 22RV1; FIG. 21-22): obvious anti-tumor activity; inhibitory effect (activity curve) [4]: inhibitory effect; Kd (integrin protein αvβ3; stated in summary text, read-out: KD value interacting with the protein αvβ3): 158 nM; tumor-inhibiting effect (activity curve) (melanoma cell WM115): highest tumor-inhibiting effect; anti-tumor activity (activity curve) [5]: obvious anti-tumor activity; anti-tumor activity (activity curve) [6]: obvious anti-tumor activity |
| C/C(CCc1ccc(O)cc1)=N\NC(=O)c1n[nH]c2c1CCCC2 [19-1] | 28.8 |  |  |  |  |  |
| O=C(N/N=C/c1ccc([N+](=O)[O-])cc1)c1n[nH]c2c1CCCC2 [19-8] | 3.76 | −1.177 | 3.49 | did not show any obvious inhibition |  |  |
| Cc1ccc(/C=N/NC(=O)c2n[nH]c3c2CCCC3)cc1 [19-4] | 0.36 | −4.343 | 0.25 | significant inhibition |  | inhibition of angiogenesis (total length of blood vessels) compared with the VEGF group ([7]; 0.1 μM, FIG. 32): significantly inhibit angiogenesis |
| Cc1ccc(/C=N/NC(=O)c2n[nH]c3c2CCCC3)cc1O [19-6] | 1.41 | −3.273 | 0.86 | significant inhibition |  | inhibition of angiogenesis (total length of blood vessels) compared with the VEGF group ([7]; 3.0 μM, FIG. 33-34): significantly inhibit angiogenesis |
| O=C(N/N=C/CCc1cccc(C(F)(F)F)c1)c1n[nH]c2c1CCCC2 [19-3] | 19.6 |  |  |  |  |  |
| COc1ccc(/C=N/NC(=O)c2n[nH]c3c2CCCC3)cc1O [19-9] | 1.09 | −2.911 | 0.47 | significant inhibition | 780 | inhibition of angiogenesis (total length of blood vessels) compared with the VEGF group ([7]; 3.0 μM, FIG. 33-34): significantly inhibit angiogenesis |
| O=C(N/N=C/c1c(O)cc(O)cc1O)c1n[nH]c2c1CCCC2 [19-5] | 36.7 | −2.689 | 49.6 |  | 2150 |  |
| CC(C)C/C=C(/C=N/NC(=O)c1n[nH]c2c1CCCC2)c1ccccc1 [19-2] | 19.6 | −0.7631 | 364 |  |  |  |
| COc1ccc(/C=N/NC(=O)c2n[nH]c3c2CCCC3)cc1OC [19-7] | 4.27 | −13.53 | 4.08 | did not show any obvious inhibition | 10100 |  |
